Assay [1] relates to adenocarcinomic human alveolar basal epithelial cell line A549. The assay is described as follows: High content analysis of anti-cancer agent by cell image analysis (Experimental Example 5). Particulars: 0.03 (w/v)% low-molecular agar medium; for average cell number per sphere / number of average spheres per 10 mm^2 / projected area: 10 days. The format is cell-based. Here is the method: By a method similar to the preparation method of medium composition in Analysis Example 1, a medium composition containing 10 (v/v) % FBS, and 0.03 (w/v) % of low-molecular agar or agar for general use in DMEM (manufactured by Wako Pure Chemical Industries, Ltd.) was prepared. Paclitaxel (manufactured by Wako Pure Chemical Industries, Ltd.) was further added to a final concentration of 0.001 μM, 0.01 μM or 0.1 μM. Successively, adenocarcinomic human alveolar basal epithelial cell line A549 (manufactured by DS PHARMA BIOMEDICAL CO., LTD.) was seeded in the above-mentioned medium composition containing low-molecular agar at 5,000 cells/mL, and dispensed to the wells of a 96 well flat bottom ultra-low attachment surface microplate (manufactured by Corning Incorporated, #3474) at 100 μL per 1 well. Successively, the plate was cultured in a standing state in a CO2 incubator (37° C., 5% CO2) for 10 days.
Then, a solution of […] of Hoechst 33342 (manufactured by Invitrogen) in DMEM (phenol red, L-glutamine free) (manufactured by Wako Pure Chemical Industries, Ltd.) was prepared, and added, at 10 μL per 1 well, to the above-mentioned culture after static culture for 10 days, and the mixture was stood in a CO2 incubator (37° C., 5% CO2) for 45 min. Successively, a solution of 20 μg/mL Propidium Iodide (manufactured by BIOMOL) in DMEM (phenol red, L-glutamine free) (manufactured by Wako Pure Chemical Industries, Ltd.) was prepared and added at 10 μL per 1 well. The plate was centrifuged at 1,500 rpm for 10 min, and high content analysis was performed by cell image analysis using a cell imaging apparatus (“ArrayScan VTI HCS Reader”, manufactured by Thermo Fisher Scientific). At that time, observation was performed with 10 fields of view per well using a ×4 objective lens, cell outline and cell nucleus were detected from Hoechst33342 fluorescence image, and dead cells were detected from propidium iodide fluorescence image. In addition, 50% inhibitory concentration (nM) of paclitaxel by high content analysis was calculated with the number of constituent cells when the anticancer agent was added at the maximum concentration as 100% inhibition rate of sphere formation.
The observed images (area per 1 field: 1 mm^2) of A549 cells cultured for 10 days in the medium composition of the present invention containing low-molecular agar, negative control and comparison control (medium composition containing deacylated gellan gum) by a cell imaging apparatus are shown in FIG. 8. In addition, number of constituent cells of A549 cell spheres (average cell number per sphere), sphere number (average sphere number per 10 mm^2), projected area of sphere (size) (μm^2), obtained from the cell imaging analysis, are shown in Table 12. As for the negative control and comparison control, the relative cell number when the amount of luminescence without addition of the anticancer agent is 1 was determined from the measurement results of the surviving cell number using the intracellular ATP as an index, and shown in Table 13. Furthermore, the 50% inhibitory concentration (nM) of paclitaxel calculated from the amount of luminescence based on intracellular ATP and high content analysis are shown in Table 14.

For assay [2] the test system is unchanged. The assay is described as follows: High content analysis of anticancer agents by cell image analysis (Experimental Example 8).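 On projected area: Projected area in square micrometres.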 To be noted: for average cell number per sphere / average dead cell number in sphere / average sphere number per 20 mm^2 / projected area: 0.03 (w/v)% low-molecular agar medium, 7 days with agent. The format is cell-based. Here is the method:
Adenocarcinomic human alveolar basal epithelial cell line A549 (manufactured by DS PHARMA BIOMEDICAL CO., LTD.) was suspended in the above-mentioned medium composition containing low-molecular agar at 11,000 cells/mL. […] The plate was stood in a CO2 incubator (37° C., 5% CO2) overnight. The next day, paclitaxel (manufactured by Wako Pure Chemical Industries, Ltd.) and trametinib (manufactured by SANTA CRUZ) were further added by 10 μl per 1 well at a final concentration of 0.001 μM, 0.01 μM and 0.1 μM, respectively, mitomycin C (manufactured by Wako Pure Chemical Industries, Ltd.) at a final concentration of 0.005 μM, 0.05 μM and 0.5 μM, and MK2206 (manufactured by SANTA CRUZ) at a final concentration of 0.001 μM, 0.01 μM, 0.1 μM and 1 μM. Successively, the plate was further cultured in a standing state in a CO2 incubator (37° C., 5% CO2) for 7 days.
Successively, a solution of 20 μg/mL Propidium Iodide (manufactured by BIOMOL) in DMEM (phenol red, L-glutamine free) (manufactured by Wako Pure Chemical Industries, Ltd.) was prepared and added at 10 μL per 1 well, and the culture medium was suspended. The plate was centrifuged at 1,500 rpm for 1 min, and high content analysis was performed by cell image analysis using a cell imaging apparatus (“ArrayScan VTI HCS Reader”, manufactured by Thermo Fisher Scientific). At that time, observation was performed with 20 fields of view per well using a ×10 objective lens, cell outline and cell nucleus were detected from Hoechst33342 fluorescence image, and dead cells were detected from propidium iodide fluorescence image. In addition, 50% inhibitory concentration (nM) of each anticancer agent by high content analysis was calculated from the number of spheres constituted of not less than 5 cells. In this case, the value without addition of the anticancer agent was taken as 0% sphere formation inhibitory rate.

pIC50: −log10 of the molar value.

Turning to `CC(=O)O[C@H]1C(=O)[C@@]2(C)[C@H]([C@H](OC(=O)c3ccccc3)[C@]3(O)C[C@H](OC(=O)[C@H](O)[C@@H](NC(=O)c4ccccc4)c4ccccc4)C(C)=C1C3(C)C)[C@]1(OC(C)=O)CO[C@@H]1C[C@@H]2O` [paclitaxel, Paclitaxel], the pIC50 in assay [1] (Homo sapiens, A549, high content analysis by cell image analysis, number of constituent cells, read-out: paclitaxel 50% inhibitory concentration) is 8.72; in assay [2] (Homo sapiens, A549, high content analysis by cell image analysis, number of spheres of not less than 5 cells, low-molecular agar-containing medium, read-out: 50% inhibitory concentration), 8.39. The “average cell number per sphere” value in assay [1] (paclitaxel 0.001 μM) was 5.353; in assay [1] (paclitaxel 0.01 μM), 1.52; in assay [1] (paclitaxel 0.1 μM), 1.165; in assay [2] (agent 0.001 μM), 4.817; in assay [2] (agent 0.01 μM) it was 2.3; in assay [2] (agent 0.1 μM), 1.662. The entries for the “number of average spheres per 10 mm^2” value in assay [1] (paclitaxel 0.001 μM), in assay [1] (paclitaxel 0.01 μM) and in assay [1] (paclitaxel 0.1 μM) were 39.33, 18 and 6.333, respectively. Besides, the projected area amounted to 1161 μm^2 in assay [1] (paclitaxel 0.001 μM); 578 μm^2 in assay [1] (paclitaxel 0.01 μM); 402 μm^2 in assay [1] (paclitaxel 0.1 μM); 1271 μm^2 in assay [2] (agent 0.001 μM); 797 μm^2 in assay [2] (agent 0.01 μM); 647 μm^2 in assay [2] (agent 0.1 μM). The “average dead cell number in sphere” value in assay [2] (agent 0.001 μM) amounted to 0.064; in assay [2] (agent 0.01 μM) it was 0.336; in assay [2] (agent 0.1 μM) it was 0.591. In addition, the “average sphere number per 20 mm^2” value in assay [2] (agent 0.001 μM) was 297.7; in assay [2] (agent 0.01 μM), 187; in assay [2] (agent 0.1 μM), 133.

For the origin of these results see patent US10914725B2, “Culture medium additive, culture medium composition, and method for culturing cells or tissue using same” (NISSAN CHEMICAL INDUSTRIES, LTD., priority 2015, dated 2021).
